Columns and labels:
adherent MCF7 cells [1] = assay: Drug induced cell death in adherent MCF7 cells (FIG. 8); type: cell-based, human; conditions: 5 μM MitoVES, 50 μM α-TOS or 10 μM parthenolide
Experimental: (§1) Adherent MCF7 cells and the corresponding mammosphere cells (MS) were cultured and assessed for morphological changes by microscopy (A) and for expression levels of markers as indicators of “sternness” by RT-PCR (B) and flow cytometry (C), including the expression of CD44 and CD24 (D). The adherent MCF7 cells (E) and the MS cells (F) were treated with 5 μM MitoVES, 50 μM α-TOS or 10 μM parthenolide and assessed for their sensitivity to drug induced cell death. […] Adherent MCF7 cells (I) and MS cells (J) were treated for 3 h with α-TOS (50 μM) or MitoVES homologues containing different lengths in the aliphatic side chain (5 μM each, either 11, 7 or 5 carbon chain in length) and the treated cells assessed for production of reactive oxygen species (ROS) by flow cytometry.

adherent MCF7 cells [2] = assay: ROS production by flow cytometry, adherent cells (FIG. 8); type: cell-based, human; conditions: 3 h; α-TOS 50 μM, MitoVES homologues 5 μM
Experimental: as §1
Cellular ROS were detected indirectly by flow cytometry and directly by electron paramagnetic resonance (EPR) spectroscopy, following treatment of cells with α-TOS as indicated in the Legend to Figures. […] For indirect evaluation, cells were treated with α-TOS and reacted with dihydrodichlorofluorescein diacetate (DCF; Molecular Probes) for 30 min, and scored by flow cytometry for cells with high fluorescence, which was evaluated on the bases on increase in mean fluorescence intensity. […]

Compound	sensitivity of adherent MCF7 cells to drug induced cell death (adherent MCF7 cells [1])	ROS production in adherent MCF7 cells (adherent MCF7 cells [2])
Cc1c(C)c2c(c(C)c1OC(=O)CCC(=O)[O-])CCC(C)(CCCCCCCCCCC[P+](c1ccccc1)(c1ccccc1)c1ccccc1)O2 (stereo not shown) [MitoVE11S]	more so	greater ROS accumulation
Cc1c(C)c2c(c(C)c1OC(=O)CCC(=O)O)CC[C@@](C)(CCC[C@H](C)CCC[C@H](C)CCCC(C)C)O2 [α-TOS, α-tocopheryl succinate, reference compound]	sensitive to killing	significant production of ROS

From patent US8598145B2, “Mitochondrially delivered anti-cancer compounds” (priority 2008, dated 2013)
